Here are results for twelve compounds from ChEMBL document CHEMBL1201862, “PubChem BioAssay data set” (2004).

The structures appear in SMILES notation.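 A five-concentration, 48-hour dose response in 96-well plates underlies each endpoint, interpolated linearly between surrounding concentrations. GI50: concentration for 50% inhibition of growth.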 The source made the active and inactive calls. No stated cut-off is given here; in the data, active = GI50 up to about 1.1 µM and inactive = higher.

Some test systems named below: 786-0; A549; CAKI-1; COLO 205; HCT-15; Malme-3M; NCI-H226; NCI-H460; OVCAR-4; OVCAR-5; SF-268; SF-295; SF-539; SK-MEL-2; SN12C; TK-10; UACC-62; NCI-H522.
Holding throughout (test): NCI tumour cell line growth inhibition, 48 h

With `COCCOCOc1ccc(OCOCCOC)c2c1C(=O)c1ccccc1C2=O`, the GI50 with 786-0 was 92.9 µM (inactive); with A549 it was 46.6 µM (inactive); in the assay on CAKI-1, 33.7 µM (inactive); in the assay on COLO 205, 54.1 µM (inactive); with HCT-15, 30.3 µM; in the assay with Malme-3M it was 41.5 µM (inactive). The GI50 in the assay with NCI-H226 is 90.2 µM (inactive); in the assay with NCI-H460, 24.3 µM (inactive); with OVCAR-4, 59.4 µM (inactive); in the assay on OVCAR-5 it was > 100 µM (inactive); in the assay on SF-268, 31.3 µM (inactive); with SF-295, > 100 µM (inactive). For the same compound, the GI50 was 36.3 µM (inactive) with SF-539; > 74.1 µM (inactive) in the assay on SK-MEL-2; 51.4 µM (inactive) with SN12C; > 73.6 µM (inactive) with TK-10; 47.6 µM (inactive) in the assay on UACC-62.
With `COc1ccc(-c2ccccc2)c2[nH]c3c(c12)CCNC3=O`, the GI50 in the assay on 786-0 is > 100 µM (inactive); in the assay on A549, > 100 µM (inactive); with CAKI-1 it was > 100 µM (inactive); in the assay on COLO 205, > 100 µM (inactive); with HCT-15, greater than 100 µM; in the assay with Malme-3M it was > 100 µM (inactive). The GI50 with NCI-H226, in the assay with NCI-H460, with NCI-H522, in the assay with OVCAR-4, in the assay with OVCAR-5 and with SF-268 was > 100 µM (inactive) in each case. Besides, the GI50 with SF-295, in the assay on SF-539, in the assay on SN12C, in the assay with TK-10 and in the assay with UACC-62 was > 100 µM (inactive) each time.
Turning to `CN1C2(c3ccccc3)C(C(=O)c3ccccc3)=C(C(=O)c3ccccc3)C1(c1ccccc1)c1c(-c3ccccc3)sc(-c3ccccc3)c12`, the GI50 was > 100 µM (inactive) in the assay on 786-0; > 100 µM (inactive) with A549; > 100 µM (inactive) with CAKI-1; > 100 µM (inactive) in the assay on COLO 205; greater than 100 µM in the assay on HCT-15; > 100 µM (inactive) in the assay with Malme-3M. Besides, the GI50 in the assay with NCI-H226 is 78.5 µM (inactive); in the assay with NCI-H460, > 100 µM (inactive); with NCI-H522 it was > 100 µM (inactive); in the assay on OVCAR-4, > 100 µM (inactive); in the assay on OVCAR-5, > 100 µM (inactive); in the assay on SF-268 it was > 100 µM (inactive). Also, the GI50 with SF-295, with SF-539, in the assay on SN12C, in the assay on TK-10 and in the assay with UACC-62 was > 100 µM (inactive) throughout.
As for `Cc1ccccc1NC(=O)C(=O)CC(=O)c1c(C)[n+]([O-])c2ccccc2[n+]1[O-]`, the GI50 in the assay on 786-0 is > 100 µM (inactive); with A549, > 100 µM (inactive); in the assay with CAKI-1, > 100 µM (inactive); in the assay with COLO 205 it was > 100 µM (inactive); in the assay with HCT-15, greater than 100 µM; in the assay with Malme-3M, > 100 µM (inactive). The GI50 is > 100 µM (inactive) with NCI-H226; > 100 µM (inactive) with NCI-H460; 76.9 µM (inactive) with OVCAR-4; > 100 µM (inactive) in the assay on OVCAR-5; > 100 µM (inactive) in the assay on SF-268; > 100 µM (inactive) in the assay with SF-295. In addition, the GI50 in the assay on SF-539, in the assay on SK-MEL-2, in the assay on SN12C and in the assay with UACC-62 was > 100 µM (inactive) throughout.
Consider `CCCCCCCCCCCCCCC1OC(=O)c2ccccc21` (stereo not drawn), for which the GI50 is > 100 µM (inactive) with 786-0; 60.3 µM (inactive) in the assay on A549; > 100 µM (inactive) with Malme-3M; 53.3 µM (inactive) with NCI-H226; 60.8 µM (inactive) with NCI-H460; 66.7 µM (inactive) in the assay with OVCAR-4. Moreover, the GI50 in the assay on OVCAR-5 is 31.7 µM (inactive); in the assay with SF-268, > 100 µM (inactive); in the assay on SF-295 it was > 100 µM (inactive); in the assay on SF-539 it was > 100 µM (inactive); in the assay with SN12C it was 24.5 µM (inactive); in the assay on TK-10, > 100 µM (inactive). The GI50 in the assay with UACC-62 is > 100 µM (inactive).
Take `N#Cc1c(-c2ccccc2)cc(-c2cccs2)c(C#N)c1N`: the GI50 is > 100 µM (inactive) in the assay with 786-0; > 100 µM (inactive) in the assay on A549; > 100 µM (inactive) in the assay with CAKI-1; > 10 µM (inactive) in the assay with COLO 205; greater than 100 µM in the assay on HCT-15; > 100 µM (inactive) with Malme-3M. The GI50 in the assay on NCI-H460, in the assay on NCI-H522, in the assay with OVCAR-4, in the assay on SF-268, in the assay on SF-295 and with SF-539 was > 100 µM (inactive) in each case. Besides, the GI50 is > 100 µM (inactive) with SN12C, > 100 µM (inactive) in the assay with TK-10 and > 10 µM (inactive) with UACC-62.
Take `COc1cccc(N2C(=O)C3C4C=C5c6ccccc6N(c6ccccc6)C5(C3C2=O)[C@H]2C(=O)N(c3cccc(OC)c3)C(=O)[C@@H]42)c1` (stereo partly drawn): the GI50 in the assay with 786-0 was > 100 µM (inactive); with A549, > 100 µM (inactive); in the assay with CAKI-1 it was > 100 µM (inactive); in the assay on COLO 205 it was > 100 µM (inactive); in the assay with HCT-15, greater than 100 µM; in the assay with Malme-3M, > 100 µM (inactive). For the same compound, the GI50 in the assay on NCI-H226, in the assay with NCI-H460, in the assay with OVCAR-4, with OVCAR-5, with SF-268 and in the assay on SF-295 was > 100 µM (inactive) in each case. In addition, the GI50 in the assay with SF-539, with SK-MEL-2, in the assay on SN12C, in the assay on TK-10 and in the assay with UACC-62 was > 100 µM (inactive) each time.
In the case of `COc1ccccc1CCc1cc(OC)c(OC)c(OC)c1`, the GI50 in the assay with 786-0 is 74.3 µM (inactive); in the assay on A549 it was 41.1 µM (inactive); with CAKI-1, 57.8 µM (inactive); with COLO 205, 42.2 µM (inactive); in the assay on HCT-15 it was 36.1 µM; in the assay on Malme-3M it was 49.5 µM (inactive). Besides, the GI50 in the assay on NCI-H226 was 39.8 µM (inactive); with NCI-H460 it was 44.1 µM (inactive); with NCI-H522, 26.8 µM (inactive); in the assay with OVCAR-4, 40.6 µM (inactive); with OVCAR-5 it was 1.56 µM (inactive); in the assay on SF-268, 65.9 µM (inactive). The GI50 is 51.4 µM (inactive) in the assay on SF-295; 65.3 µM (inactive) in the assay with SF-539; 61.9 µM (inactive) in the assay with SN12C; 76.7 µM (inactive) with TK-10; 65 µM (inactive) with UACC-62.
With `OC1C2CCC1C1C3C=CC(C3)C21` (stereo not drawn), the GI50 in the assay with 786-0 was > 100 µM (inactive); with A549, 57 µM (inactive); in the assay on CAKI-1 it was 64.9 µM (inactive); in the assay with COLO 205, > 100 µM (inactive); in the assay on HCT-15, 77.4 µM; in the assay with Malme-3M, > 100 µM (inactive). Further, the GI50 with NCI-H226 was 58.5 µM (inactive); in the assay with NCI-H460 it was > 100 µM (inactive); in the assay with NCI-H522 it was 50.9 µM (inactive); in the assay on OVCAR-4, > 100 µM (inactive); in the assay with OVCAR-5, 63.4 µM (inactive); with SF-268 it was > 100 µM (inactive). Further, the GI50 with SF-295 was 61.5 µM (inactive); in the assay with SK-MEL-2, 32.8 µM (inactive); in the assay with TK-10 it was > 100 µM (inactive); in the assay with UACC-62 it was > 100 µM (inactive).
`Cc1ccc(-n2c(C)nc3c2C(=O)c2ccccc2C3=O)cc1`: the GI50 with 786-0 is 18.5 µM (inactive); in the assay on A549, 28.9 µM (inactive); with COLO 205, 14.6 µM (inactive); with HCT-15 it was 7.53 µM; in the assay on Malme-3M it was 20.4 µM (inactive); in the assay on NCI-H226, > 100 µM (inactive). For the same compound, the GI50 in the assay on NCI-H460 is 4.44 µM (inactive); in the assay with NCI-H522, 34.7 µM (inactive); in the assay with OVCAR-4 it was 82.8 µM (inactive); with SF-268, 7.41 µM (inactive); with SF-295 it was 25 µM (inactive); in the assay on SF-539, 10.4 µM (inactive). Moreover, the GI50 is 40.7 µM (inactive) in the assay on SK-MEL-2, 28.4 µM (inactive) with SN12C, > 100 µM (inactive) with TK-10 and 8.57 µM (inactive) in the assay with UACC-62.
On to `CS(=O)(=O)CC1=Nc2nnc(CCCCCCCc3nnc4n3C(=O)C(CS(C)(=O)=O)=N4)n2C1=O`, for which the GI50 in the assay with 786-0 is > 100 µM (inactive); in the assay on A549 it was > 100 µM (inactive); with CAKI-1 it was > 100 µM (inactive); with COLO 205 it was > 100 µM (inactive); in the assay on HCT-15 it was greater than 100 µM; in the assay with Malme-3M, > 100 µM (inactive). Also, the GI50 in the assay on NCI-H226, with NCI-H460, in the assay with NCI-H522, in the assay on OVCAR-5, with SF-268 and with SF-295 was > 100 µM (inactive) throughout. The GI50 with SF-539, in the assay with SN12C, in the assay with TK-10 and in the assay on UACC-62 was > 100 µM (inactive) each time.
Turning to `CC(CNCCCNCCNCCCNCO)[N+](=O)[O-]` (stereo not drawn), the GI50 was 15.7 µM (inactive) in the assay with 786-0; 21.9 µM (inactive) with A549; 6.11 µM (inactive) with CAKI-1; 6.52 µM (inactive) in the assay on COLO 205; 10.8 µM in the assay on HCT-15; 2.07 µM (inactive) with Malme-3M. The GI50 is 17.2 µM (inactive) in the assay with NCI-H460; 14.5 µM (inactive) with OVCAR-4; 13.9 µM (inactive) with OVCAR-5; 15.7 µM (inactive) with SF-268; > 100 µM (inactive) in the assay with SF-295; 15.4 µM (inactive) with SF-539. The GI50 with SK-MEL-2 is 15.5 µM (inactive); in the assay on SN12C it was 15.1 µM (inactive); in the assay with TK-10, 2.49 µM (inactive); with UACC-62, 16 µM (inactive).
